Results published in the NIST ThermoML archive (doi:10.1021/je200039y).
± gives the expanded uncertainty stated by the source. One block for each molecule: values may come before it.

Legend:
[1] = refractive index (Na D-line) (dimensionless); settings: 298 K; 101.33 kPa; Liquid; Standard Abbe refractometry
[2] = Liquid
[3] = 350.3 K, Closed cell (Static) method
[4] = 350.43 K, Closed cell (Static) method
[5] = 343.15 K, Ebulliometric method (Recirculating still)

SMILES: Cc1ccccc1C [1,2-dimethylbenzene]
refractive index [1]: 1.5026 ± 0.0007

SMILES: CSSC [2,3-dithiabutane]
vapor or sublimation pressure ([2]; 343.15 K, Closed cell (Static) method): 27.8 ± 0.4 kPa
vapor or sublimation pressure [2, 3]: 36.1 ± 0.8 kPa
vapor or sublimation pressure ([2]; 350.38 K, Closed cell (Static) method): 36 ± 0.8 kPa
vapor or sublimation pressure [2, 4]: 35.8 ± 0.8 kPa
vapor or sublimation pressure ([2]; 350.55 K, Closed cell (Static) method): 36.1 ± 0.8 kPa
refractive index [1]: 1.5226 ± 0.0007

SMILES: CC(C)C [2-methylpropane]
vapor or sublimation pressure ([2]; 350.54 K, Closed cell (Static) method): 1269.5 ± 5.5 kPa

SMILES: C/C=C/C [(E)-2-butene]
vapor or sublimation pressure [2, 3]: 929.2 ± 4 kPa

Further lines, results first:

vapor or sublimation pressure [2, 5]: 92.9 ± 0.7 kPa
refractive index [1]: 1.373 ± 0.0007
SMILES: CCOC(C)(C)C [2-ethoxy-2-methylpropane]

vapor or sublimation pressure [2, 4]: 1154.3 ± 5 kPa
SMILES: C=C(C)C [2-methylpropene]

vapor or sublimation pressure ([2]; 350.36 K, Closed cell (Static) method): 951.7 ± 4.1 kPa
SMILES: CCCC [butane]

vapor or sublimation pressure [2, 5]: 72.5 ± 0.6 kPa
refractive index [1]: 1.3593 ± 0.0007
SMILES: CCO [ethanol]
